Measured values taken from US20050288347A1, “Certain triazole-based compounds, compositions, and uses thereof” (priority 2004, published 2005).
Entries after “also recorded” stand apart in the source; their conditions may differ.

Tested on: protein kinase
Test: HTS ATP-utilizing enzyme assay, off-chip mobility-shift format (Caliper HTS 250)
Type: biochemical, human
Details: test compound 10 μM; active = activity greater than three-sigma from the mean of the predominately inactive population for that enzyme
How it was run: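 Kinase reactions ran 2.5 h at 20 to 22 °C with test compound at 10 μM, in a HEPES pH 7.5 master buffer containing Triton X-100 and BSA. Peptide substrate and phosphorylated product separated by mobility shift; inhibition normalized to DMSO (0%) and EDTA (100%) controls, with three-sigma thresholds for hits.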

Row | SMILES | protein kinase against which the compound exhibits inhibitory activity (Table 3)
1 | CCn1c(COc2ccc(Cl)cc2)nnc1SCCN1CCCCC1 | INSR and PDGFRR-α and CHEK1
2 | O=[N+]([O-])c1ccc(-c2nnc(CSc3nncn3-c3ccccn3)o2)cc1 | PDGFRR-α
3 | COCCNC(=O)CSc1nnc(-c2ccccc2O)n1-c1ccccc1OC | KIT
4 | Cc1cc(C)nc(SCc2nnc(SCc3ccccc3)n2Cc2ccco2)n1 | CDK1
5 | CCn1c(CNc2ccccc2Cl)nnc1SCCN1CCCCC1 | MAPKAPK-2
6 | COc1ccc(-n2c(CNc3cc(C(F)(F)F)ccc3Cl)nnc2SCc2ccccc2Cl)cc1 | CDK1
7 | Cc1ccc(-n2c(SCc3nnc(-c4ccccc4)o3)nnc2-c2ccncc2)cc1 | GSK3-β; also recorded: GSK3-α
8 | Cc1ccc(NCc2nnc(SCc3nnc(-c4ccccc4)o3)n2CC2CCCO2)c(C)c1 (stereo not drawn) | SYK
9 | COCCn1c(SCCN2CCOCC2)nnc1-c1cc2ccccc2cc1O | CHEK2
10 | CC(C)(C)c1ccc(CSc2nnc(COc3ccc(Cl)cc3)n2-c2ccccc2)cc1 | SYK
11 | c1ccc(CSc2nnc(CCC3CCCC3)n2Cc2cccnc2)cc1 | GSK3-α
12 | N#Cc1cccc(CSc2nnc(-c3cccs3)[nH]2)c1 | AURORA-A; also recorded: GSK3-β; also recorded: GSK3-α
13 | Clc1ccc(Cn2c(CCC3CCCC3)nnc2SCc2ccccc2)cc1Cl | GSK3-β; also recorded: AURORA-A; also recorded: c-TAK1
14 | Cc1ccc(CCn2c(CCC3CCCC3)nnc2SCc2ccccc2)cc1 | AURORA-A; also recorded: c-TAK1
15 | Clc1cccc(NCc2nnc(SCc3ccccc3Cl)n2-c2ccccc2)c1 | LCK
16 | Cc1nn(-c2ccccc2)c2sc(-c3nnc(SCCN4CCCCC4)n3C)cc12 | GSK3-α; also recorded: CHEK2
17 | Cc1cc(OCc2nnc(SCCN3CCOCC3)n2Cc2ccccc2)ccc1Cl | AURORA-A
18 | Cc1nn(-c2ccccc2)c2sc(-c3nnc(SCCN4CCOCC4)n3C)cc12 | GSK3-α; also recorded: GSK3-β; also recorded: DAPK1
19 | FC(F)Oc1ccccc1CSc1nnc(-c2cc(-c3ccccc3)nc3ccccc23)n1Cc1ccco1 | c-TAK1
20 | CCOc1ccc2nc(-c3ccc(OC)cc3)cc(-c3nnc(SCc4ccc(F)cc4F)n3C)c2c1 | CHEK2
21 | COCCCn1c(SCc2ccc(C(C)(C)C)cc2)nnc1-c1ccncc1 | DYRK2
22 | CC(C)(C)c1ccc(CSc2nnc(-c3ccncc3)n2Cc2ccco2)cc1 | MAPKAPK-2
23 | O=C(O)c1ccc(CSc2nnc(-c3ccncc3)n2Cc2ccco2)cc1 | GSK3-α; also recorded: GSK3-β
24 | CCn1c(SCc2cc(=O)[nH]c3ccccc23)nnc1-c1cc2ccccc2cc1O | AURORA-A
25 | Cn1c(COc2ccccc2)nnc1SCc1cc(=O)[nH]c2ccccc12 | GSK3a

Row | SMILES | protein kinase against which the compound exhibits inhibitory activity (Table 3)
26 | O=C(O)c1ccc(CSc2nnc(-c3ccc(OC(F)(F)F)cc3)[nH]2)cc1 | FLT-3; also recorded: AURORA-A; also recorded: DYRK2
27 | CCc1nnc(SCc2ccccc2)n1Cc1ccc(Cl)c(Cl)c1 | GSK3-α; also recorded: GSK3-β; also recorded: AURORA-A
28 | CCOc1ccc(NCc2nnc(SCCN3CCOCC3)n2-c2ccc(OC)cc2)cc1 | FYN
29 | CCOc1ccc(NCc2nnc(SCCN3CCCCC3)n2-c2ccccc2)cc1 | PDGFRR-α and FYN
30 | CCOc1ccc(NCc2nnc(SCCN3CCOCC3)n2-c2ccccc2)cc1 | FYN
31 | Cn1c(CNc2ccc(F)cc2)nnc1SCCN1CCOCC1 | PDGFRR-α
32 | COc1ccc(NCc2nnc(SCCN3CCCCC3)n2-c2ccccc2OC)cc1 | FYN and PDGFRR-α and FLT-3
33 | COc1ccc(NCc2nnc(SCCN3CCCCC3)n2C)cc1 | FYN and PDGFRR-α
34 | COc1ccc(NCc2nnc(SCc3ccc([N+](=O)[O-])cc3)n2C)cc1 | FYN
35 | CCOc1ccc2nc(-c3ccc(OC)cc3)cc(-c3nnc(SCc4ccc(F)cc4C(F)(F)F)n3C)c2c1 | AURORA-A
36 | Cc1ccc(S(=O)(=O)N(Cc2nnc(SCc3ccc(Cl)cc3Cl)n2-c2ccccc2)c2cccc(Cl)c2)cc1 | LCK
37 | CCOc1ccc(Nc2nc(Cc3nnc(SCc4cccnc4)n3CC)cs2)cc1 | CHEK2; also recorded: AURORA-A
38 | CCOc1ccc(NCc2nnc(SCCN3CCOCC3)n2-c2cccc(Cl)c2)cc1 | FYN and FLT-3 and PDGFRR-α
39 | CC1=CC(C)=NCN1SCc1nnc(SCc2ccc([N+](=O)[O-])cc2)n1Cc1ccco1 | LYNA
40 | CCn1c(CNc2ccc(OC)cc2)nnc1SCc1c(F)cccc1Cl | PDGFRR-α and FYN and FLT-3
41 | COc1ccc(NCc2nnc(SCCCC3CCCCC3)n2C)cc1 | PDGFRR-α and FYN and FLT-3
42 | CCn1c(CNc2ccc(C)cc2)nnc1SCc1ccc(Cl)c(Cl)c1 | AURORA-A; also recorded: CDK2-cyclinE
43 | Cc1cccc(NCc2nnc(SCc3ccc(Cl)cc3)n2-c2ccccc2)c1 | PDGFRR-α and MSK2
44 | COc1ccc(NCc2nnc(SCc3ccc(Cl)cc3)n2-c2ccccc2)cc1 | PDGFRR-α and FYN
45 | Cc1ccc(NCc2nnc(SCc3ccc(C(C)(C)C)cc3)n2-c2ccc(C)cc2)cc1 | AURORA-A and SYK
46 | Cc1ccc(NCc2nnc(SCc3ccccc3)n2C)cc1 | AURORA-A
47 | COc1ccccc1-n1c(SC(C)C(=O)NCc2ccco2)nnc1-c1ccccc1 (stereo not drawn) | AKT1
48 | CCOC(=O)c1ccc(CSc2nnc(Cc3ccc(OC)cc3)[nH]2)o1 | FLT-3
49 | CCOC(=O)c1ccc(CSc2nnc(-c3ccc([N+](=O)[O-])cc3)[nH]2)o1 | AURORA-A

The next lines start with the values.

Row | protein kinase against which the compound exhibits inhibitory activity (Table 3) | SMILES
50 | AURORA-A | Cn1c(CCc2nc3ccccc3[nH]2)nnc1SCCN1CCCCC1
51 | GSK3-α | Cn1cnnc1SCc1csc(Cc2ccc(Cl)c(Cl)c2)n1
52 | CDK2-cyclinA | Cc1ccc(CSc2nnc(CSc3nc(C)cc(C)n3)n2Cc2ccco2)cc1
53 | AURORA-A | N#Cc1ccccc1CSc1nnc(-c2ccc(OC(F)(F)F)cc2)[nH]1
54 | GSK3-α | Cc1ccc(-c2nnc(CSc3nnc(COc4ccccc4)n3-c3ccc(C)cc3)o2)cc1
55 | GSK3-β; also recorded: GSK3-α | CN1C=NN(c2cc3ccccc3cc2O)C1SCc1nnc(-c2ccccc2)o1 (stereo not drawn)
56 | DAPK1 | COCCCn1c(SCc2ccc(Cl)cc2)nnc1-c1ccc(C(C)(C)C)cc1
57 | LCK | Clc1cccc(NCc2nnc(SCc3ccc(Cl)cc3Cl)n2-c2ccccc2)c1
58 | CSK and LCK | COc1cc(CSc2nnc[nH]2)c(OC)cc1CSc1nnc[nH]1
59 | CDK2-cyclinE | COc1ccc(-n2c(COc3ccc4ccccc4c3)nnc2SCCN2CCOCC2)cc1
60 | GSK3-α; also recorded: GSK3-β | COc1ccc(-n2c(SCCN3CCOCC3)nnc2-c2ccc(O)cc2)cc1
61 | GSK3-β; also recorded: GSK3-α | Cc1ccc(-c2nnc(CSc3nnc(-c4ccc(S(=O)(=O)N5CCOCC5)cc4)n3C)o2)cc1
62 | c-TAK1 | CCn1c(SCc2ccc(-c3csnn3)cc2)nnc1-c1cc(-c2ccccc2)nc2ccccc12
63 | SYK | Cc1ccc(-n2c(SCc3ccc(C(=O)O)cc3)nnc2-c2ccc(Cl)cc2)cc1
64 | FYN and PDGFRR-α | CCOc1ccc(NCc2nnc(SCCN3CCCCC3)n2-c2ccc(C)cc2)cc1
65 | FYN | CCOc1ccc(NCc2nnc(SCCN3CCOCC3)n2-c2ccc(C)cc2)cc1
66 | CDK2-cyclinA | Fc1ccc(NCc2nnc(SCCN3CCOCC3)n2-c2ccccc2)cc1
67 | FYN | COc1ccc(NCc2nnc(SCCN3CCCCC3)n2-c2ccc(OC)cc2)cc1
68 | FYN and PDGFRR-α and FLT-3 | COc1ccc(NCc2nnc(SCCN3CCCCC3)n2-c2cccc(Cl)c2)cc1
69 | AURORA-A | Cc1ccc(NCc2nnc(SCc3nnc(-c4ccccc4)o3)n2Cc2ccco2)c(C)c1
70 | GSK3-β; also recorded: GSK3-α | Cn1c(CNc2ccc(F)cc2)nnc1SCc1c(Cl)cccc1Cl
71 | PDGFRR-α and FYN( | CCn1c(CNc2ccc(OC)cc2)nnc1SCc1ccc(Cl)cc1
72 | FLT-3; also recorded: GSK3-β | CCOC(=O)c1ccc(CSc2nnc(-c3ccc(OC(F)(F)F)cc3)[nH]2)o1
